Molecules are shown by their SMILES.

In the assay the target is recombinant DYRK1A kinase (Homo sapiens (Human), UniProt Q13627). The assay can be described thus: DYRK1A kinase assay (Ser/Thr 18 peptide Z-lyte FRET assay). The assay is classed as biochemical. Conditions: DYRK1A kinase activity; 15 μM ATP, 1 h room temperature; method text calls the value IC50. The method in brief:
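Recombinant human DYRK1A (0.25 μg/mL) with 15 μM ATP and 4 μM Ser/Thr 18 peptide, 1 h at room temperature with compound (11-point, 1:3, 10 μM top, duplicate). Z-lyte development 1 h, then coumarin/fluorescein FRET emission ratio converted to % phosphorylation; IC50 by non-linear regression.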
In general, EC50 refers to the concentration at which the effect is half-maximal. As to `COC[C@@H](C)Nc1nc(OC)c2c(-c3cnc4nc(C)n(CC(F)F)c4c3)c[nH]c2n1` [Compound 2271, (R)-5-(1-(2,2-Difluoroethyl)-2-methyl-1H-imidazo[4,5-b]pyridin-6-yl)-4-methoxy-N-(1-methoxypropan-2-yl)-7H-pyrrolo[2,3-d]pyrimidin-2-amine], the EC50 is 112 nM.

In the case of `COc1nc(NC2CCC(F)(F)CC2)nc2[nH]cc(-c3cnc4nc(C)n(CC(F)F)c4c3)c12` [Compound 2272, N-(4,4-Difluorocyclohexyl)-5-(1-(2,2-difluoroethyl)-2-methyl-1H-imidazo[4,5-b]pyridin-6-yl)-4-methoxy-7H-pyrrolo[2,3-d]pyrimidin-2-amine], the EC50 was 62.2 nM.

As to `COc1nc(NCC(C)(C)F)nc2[nH]cc(-c3ccc4nc(C)n(CC(F)F)c4n3)c12` [Compound 2276, 5-(3-(2,2-Difluoroethyl)-2-methyl-3H-imidazo[4,5-b]pyridin-5-yl)-N-(2-fluoro-2-methylpropyl)-4-methoxy-7H-pyrrolo[2,3-d]pyrimidin-2-amine], the EC50 was determined as 256 nM.

`COC[C@@H](C)Nc1nc(OC)c2c(-c3ccc4nc(C)n(CC(F)F)c4n3)c[nH]c2n1` [Compound 2278, (R)-5-(3-(2,2-Difluoroethyl)-2-methyl-3H-imidazo[4,5-b]pyridin-5-yl)-4-methoxy-N-(1-methoxypropan-2-yl)-7H-pyrrolo[2,3-d]pyrimidin-2-amine]: the EC50 worked out at 1000 nM.

As for `COc1nc(NC2CCC(F)(F)CC2)nc2[nH]cc(-c3ccc4nc(C)n(CC(F)F)c4n3)c12` [Compound 2279, N-(4,4-Difluorocyclohexyl)-5-(3-(2,2-difluoroethyl)-2-methyl-3H-imidazo[4,5-b]pyridin-5-yl)-4-methoxy-7H-pyrrolo[2,3-d]pyrimidin-2-amine], the EC50 stood at 250 nM.

On to `COc1nc(N[C@H]2CC[C@@H](OC(F)F)CC2)nc2[nH]cc(-c3ccc4nc(C)n(CC(F)F)c4n3)c12` [Compound 2281, 5-(3-(2,2-Difluoroethyl)-2-methyl-3H-imidazo[4,5-b]pyridin-5-yl)-N-(cis-4-(difluoromethoxy)cyclohexyl)-4-methoxy-7H-pyrrolo[2,3-d]pyrimidin-2-amine], for which the concentration giving a half-maximal response (EC50) came to 269 nM.

Regarding `COc1nc(NCC(C)(C)F)nc2[nH]cc(-c3ccc4nnn(C)c4c3)c12` [Compound 2283, N-(2-Fluoro-2-methylpropyl)-4-methoxy-5-(1-methyl-1H-benzo[d][1,2,3]triazol-6-yl)-7H-pyrrolo[2,3-d]pyrimidin-2-amine], the half-maximal effective concentration (EC50) turned out to be 47.4 nM.

Regarding `COc1nc(NC2CCC(F)(F)CC2)nc2[nH]cc(-c3ccc4nnn(C)c4c3)c12` [Compound 2284, N-(4,4-Difluorocyclohexyl)-4-methoxy-5-(1-methyl-1H-benzo[d][1,2,3]triazol-6-yl)-7H-pyrrolo[2,3-d]pyrimidin-2-amine], the concentration for a half-maximal effect (EC50) was 83.9 nM.

With `[2H]C([2H])([2H])O[C@H]1CC[C@@H](Nc2nc(OC)c3c(-c4ccc5nnn(C)c5c4)c[nH]c3n2)CC1` [Compound 2285, 4-Methoxy-N-(cis-4-(methoxy-d3)cyclohexyl)-5-(1-methyl-1H-benzo[d][1,2,3]triazol-6-yl)-7H-pyrrolo[2,3-d]pyrimidin-2-amine], the EC50 is 200 nM.

`COc1nc(N[C@H]2CC[C@@H](OC(F)F)CC2)nc2[nH]cc(-c3ccc4nnn(C)c4c3)c12` [Compound 2287, N-(cis-4-(Difluoromethoxy)cyclohexyl)-4-methoxy-5-(1-methyl-1H-benzo[d][1,2,3]triazol-6-yl)-7H-pyrrolo[2,3-d]pyrimidin-2-amine]: the EC50 is 239 nM.

In the case of `COc1nc(N[C@H]2CC[C@@H](OC(F)(F)F)CC2)nc2[nH]cc(-c3ccc4nnn(C)c4c3)c12` [Compound 2289, 4-Methoxy-5-(1-methyl-1H-benzo[d][1,2,3]triazol-6-yl)-N-(cis-4-(trifluoromethoxy)cyclohexyl)-7H-pyrrolo[2,3-d]pyrimidin-2-amine], the half-maximal effective concentration (EC50) was 1480 nM.

As for `COC[C@@H](C)Nc1nc(OC)c2c(-c3ccc4nnn(CC(F)F)c4c3)c[nH]c2n1` [Compound 2294, (R)-5-(1-(2,2-Difluoroethyl)-1H-benzo[d][1,2,3]triazol-6-yl)-4-methoxy-N-(1-methoxypropan-2-yl)-7H-pyrrolo[2,3-d]pyrimidin-2-amine], the concentration for a half-maximal effect (EC50) worked out at 23.7 nM.

As to `COc1nc(NCC(C)(C)F)nc2[nH]cc(-c3ccc4nccn4n3)c12` [Compound 2298, N-(2-Fluoro-2-methylpropyl)-5-(imidazo[1,2-b]pyridazin-6-yl)-4-methoxy-7H-pyrrolo[2,3-d]pyrimidin-2-amine], the EC50 was found to be 117 nM.

As for `COC[C@@H](C)Nc1nc(OC)c2c(-c3ccc4nccn4n3)c[nH]c2n1` [Compound 2300, (R)-5-(Imidazo[1,2-b]pyridazin-6-yl)-4-methoxy-N-(1-methoxypropan-2-yl)-7H-pyrrolo[2,3-d]pyrimidin-2-amine], the EC50 was found to be 230 nM.

Take `COc1nc(NCC(C)(C)F)nc2[nH]cc(-c3ccn4nccc4c3)c12` [Compound 2305, N-(2-Fluoro-2-methylpropyl)-4-methoxy-5-(pyrazolo[1,5-a]pyridin-5-yl)-7H-pyrrolo[2,3-d]pyrimidin-2-amine]: the EC50 was 21.8 nM.

As to `COc1nc(N[C@H]2CC[C@@H](OC)CC2)nc2[nH]cc(-c3ccn4nccc4c3)c12` [Compound 2306, 4-Methoxy-N-(cis-4-methoxycyclohexyl)-5-(pyrazolo[1,5-a]pyridin-5-yl)-7H-pyrrolo[2,3-d]pyrimidin-2-amine], the EC50 worked out at 171 nM.

With `COc1nc(N[C@H]2CC[C@H](OC(F)F)CC2)nc2[nH]cc(-c3ccn4nccc4c3)c12` [Compound 2308, N-(trans-4-(Difluoromethoxy)cyclohexyl)-4-methoxy-5-(pyrazolo[1,5-a]pyridin-5-yl)-7H-pyrrolo[2,3-d]pyrimidin-2-amine], the EC50 turned out to be 462 nM.

Turning to `COc1nc(N[C@@H]2CCCOC2)nc2[nH]cc(-c3ccn4nccc4c3)c12` [Compound 2314, (R)-4-Methoxy-5-(pyrazolo[1,5-a]pyridin-5-yl)-N-(tetrahydro-2H-pyran-3-yl)-7H-pyrrolo[2,3-d]pyrimidin-2-amine], the EC50 was determined as 17.3 nM.

Consider `COc1nc(N[C@H]2CCCOC2)nc2[nH]cc(-c3ccn4nccc4c3)c12` [Compound 2315, (S)-4-Methoxy-5-(pyrazolo[1,5-a]pyridin-5-yl)-N-(tetrahydro-2H-pyran-3-yl)-7H-pyrrolo[2,3-d]pyrimidin-2-amine], for which the EC50 came to 120 nM.

For the molecule `COc1nc(N[C@@H]2CCOC[C@H]2F)nc2[nH]cc(-c3ccn4nccc4c3)c12` [Compound 2316, N-((3S,4R)-3-Fluorotetrahydro-2H-pyran-4-yl)-4-methoxy-5-(pyrazolo[1,5-a]pyridin-5-yl)-7H-pyrrolo[2,3-d]pyrimidin-2-amine], the EC50 stood at 160 nM.

With `COc1nc(N[C@@H]2CCOC[C@@H]2F)nc2[nH]cc(-c3ccn4nccc4c3)c12` [Compound 2317, N-((3R,4R)-3-Fluorotetrahydro-2H-pyran-4-yl)-4-methoxy-5-(pyrazolo[1,5-a]pyridin-5-yl)-7H-pyrrolo[2,3-d]pyrimidin-2-amine], the 50% effective concentration (EC50) came to 107 nM.

As to `COc1nc(N[C@@H]2CCOC[C@H]2O)nc2[nH]cc(-c3ccn4nccc4c3)c12` [Compound 2318, (3S,4R)-4-((4-Methoxy-5-(pyrazolo[1,5-a]pyridin-5-yl)-7H-pyrrolo[2,3-d]pyrimidin-2-yl)amino)tetrahydro-2H-pyran-3-ol], the EC50 worked out at 12.9 nM.

Regarding `COc1nc(N[C@@H]2CCOC[C@H]2OC)nc2[nH]cc(-c3ccn4nccc4c3)c12` [Compound 2319, 4-Methoxy-N-((3S,4R)-3-methoxytetrahydro-2H-pyran-4-yl)-5-(pyrazolo [1,5-a]pyridin-5-yl)-7H-pyrrolo[2,3-d]pyrimidin-2-amine], the half-maximal effective concentration (EC50) was 287 nM.

For the molecule `CC(C)Oc1nc(N[C@H]2CC[C@@](C)(O)CC2)nc2[nH]cc(-c3ccn4nccc4c3)c12` [Compound 2320, cis-4-((4-Isopropoxy-5-(pyrazolo[1,5-a]pyridin-5-yl)-7H-pyrrolo[2,3-d]pyrimidin-2-yl)amino)-1-methylcyclohexan-1-ol], the EC50 turned out to be 59.4 nM.

With `COc1nc(NC2[C@H]3COC[C@@H]23)nc2[nH]cc(-c3ccn4nccc4c3)c12` (stereo partly drawn) [Compound 2323, N-((1R,5S,6r)-3-Oxabicyclo[3.1.0]hexan-6-yl)-4-methoxy-5-(pyrazolo[1,5-a]pyridin-5-yl)-7H-pyrrolo[2,3-d]pyrimidin-2-amine], the EC50 came to 0.9 nM.

Consider `COc1nc(N[C@@H]2[C@@H]3COC[C@@H]32)nc2[nH]cc(-c3ccn4nccc4c3)c12` [Compound 2324, N-((1R,5S,6s)-3-oxabicyclo[3.1.0]hexan-6-yl)-4-methoxy-5-(pyrazolo [1,5-a]pyridin-5-yl)-7H-pyrrolo[2,3-d]pyrimidin-2-amine], for which the EC50 turned out to be 1.5 nM.

For the molecule `COc1nc(NCC(C)(C)F)nc2[nH]cc(-c3ccn4nccc4n3)c12` [Compound 2325, N-(2-Fluoro-2-methylpropyl)-4-methoxy-5-(pyrazolo[1,5-a]pyrimidin-5-yl)-7H-pyrrolo[2,3-d]pyrimidin-2-amine], the concentration for a half-maximal effect (EC50) turned out to be 87 nM.

In the case of `C[C@]1(O)CC[C@@H](Nc2ncc3c(-c4ccc5nccn5c4)c[nH]c3n2)CC1` [Compound 2349, cis-4-((5-(Imidazo[1,2-a]pyridin-6-yl)-7H-pyrrolo[2,3-d]pyrimidin-2-yl)amino)-1-methylcyclohexan-1-ol], the EC50 stood at 1.3 nM.

For `COc1nc(N[C@H]2CC[C@](C)(O)CC2)nc2[nH]cc(-c3ccc4nccn4c3)c12` [Compound 2378, trans-4-((5-(Imidazo[1,2-a]pyridin-6-yl)-4-methoxy-7H-pyrrolo[2,3-d]pyrimidin-2-yl)amino)-1-methylcyclohexan-1-ol], the EC50 stood at 1.1 nM.

Turning to `COc1nc(N[C@H]2CC[C@](C)(O)CC2)nc2[nH]cc(-c3cc(F)c4nccn4c3)c12` [Compound 2494, trans-4-((5-(8-Fluoroimidazo[1,2-a]pyridin-6-yl)-4-methoxy-7H-pyrrolo[2,3-d]pyrimidin-2-yl)amino)-1-methylcyclohexan-1-ol], the EC50 was 1.1 nM.

Values taken from patent publication US20250129104A1, “7H-PYRROLO[2,3-D]PYRIMIDINES AND PREPARATION AND USES THEREOF” (BioSplice Therapeutics, Inc., priority 2021, published 2025).
